We go through 52 molecules from PubChem BioAssay (NCI).

The structures appear in SMILES notation. Where “and” joins values, the source holds several entries; their conditions need not be identical. Equal entries are not always repeated.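 In this assay, cells in 96-well plates receive the compound at five concentrations for 48 hours. Endpoints are linearly interpolated between the surrounding concentrations. GI50: concentration for 50% inhibition of growth. TGI marks complete inhibition of growth.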

This experiment concerns MDA-MB-468 breast. The experiment can be described thus: inhibition of tumour cell growth, NCI panel, 48 h.
`OC(c1cc(C(F)(F)F)nc2c(C(F)(F)F)cccc12)C1CCCCN1` (stereo not drawn): the GI50 was 1630 nM and the TGI is 3370 nM.
As for `C=C1C[C@H](O)[C@H](Br)C(C)(C)[C@@]12CCC(C)=C(Cl)C2`, the GI50 was 36.9 nM and the TGI amounted to 397 nM.
The like results for `N=C(N)c1ccc(OCCCCCCCCCCOc2ccc(C(=N)N)cc2)cc1` were, in that order, 414 nM and 1800 nM.
The like results for `CCNC(=O)C#Cc1ccc2c(C(=Nc3ccc(CN(C)C)cc3)c3ccccc3)c(O)[nH]c2c1` were, in that order, 62.1 nM and 914 nM.
The like results for `COc1cc(/C=C2\CN(S(=O)(=O)c3ccc(C)cc3)C/C(=C\c3cc(CN4CCCC4)c(O)c(OC)c3)C2=O)cc(CN2CCCC2)c1O` were, in that order, 1150 nM and 2650 nM.
As to `COc1ccccc1NC(=O)c1cc2cc(Br)ccc2cc1O`, the GI50 was 2790 nM and the TGI is 7870 nM.
The like results for `CCCCCCCCCCSC(=N)N` (tested in a mixture with another compound) were, in that order, 2100 nM and 4860 nM.
As for `O=C1OCC2=C1C(c1cccc(Br)c1)c1cc3c(cc1N2CCO)OCCO3` (stereo not drawn), the GI50 was 25.8 nM and the TGI came to 181 nM.
`Nc1nc2[nH]cc(CCc3ccc(C(=O)N[C@@H](CCC(=O)O)C(=O)O)cc3)c2c(=O)[nH]1`: the GI50 is 2570 nM and the TGI was above 100000 nM.
The like results for `NC(=S)N/N=C1\c2cc(Cl)ccc2-c2c1cc(Cl)cc2[N+](=O)[O-]` were, in that order, 3070 nM and 9030 nM.
Turning to `COC(=O)/C=C/c1cc(OC(C)=O)c2c(c1)[C@@H](C(=O)OC)[C@H](c1ccc(OC(C)=O)c(OC(C)=O)c1)O2`, the GI50 was 380 nM and the TGI worked out at 13700 nM.
The like results for `COc1ccc2ncnc(Nc3ccc(OCc4ccccc4)cc3)c2c1` were, in that order, 2770 nM and 9080 nM.
As for `COc1cc(-c2nn(-c3cccc(NC(=O)c4ccccc4)c3)cc2-c2ccncc2)ccc1Cl`, the GI50 is 349 nM and the TGI came out at 3420 nM.
The like results for `CC[C@@H](c1ccc(O)c(O)c1)[C@@H](CC)c1ccc(O)c(O)c1` were, in that order, 2090 nM and 5510 nM.
The like results for `CN(C)CC(O)c1ccc(/C=C/c2ccc(Cl)cc2)cc1` (stereo not drawn) were, in that order, 1750 nM and 3830 nM.
Turning to `CCOC(=O)n1cc(C2=C(c3ccc(OC)c(OC)c3)COC2=O)c2ccccc21`, the GI50 was 35.7 nM and the TGI is above 100000 nM.
For `c1ccc(-c2n(Cc3ccc4ccccc4n3)cc[n+]2Cc2ccc3ccccc3c2)cc1`, the GI50 is 222 nM and the TGI came out at 1090 nM.
The like results for `NCCNCCNCCN` were, in that order, above 100000 nM and above 100000 nM.
With `c1ccc(Nc2ncc(-c3ccccc3)o2)cc1`, the GI50 is 8410 nM and the TGI is above 25000 nM.
As to `CCN1C(=O)N(CC)C2SC(N/N=C/C=C/c3ccccc3OC)=NC21` (stereo not drawn), the GI50 was 326 nM and the TGI amounted to 48900 nM.
The like results for `CC(=C(c1ccc(OCCN2CCCCC2)cc1)c1ccc(OCCN2CCCCC2)cc1)c1ccc(Cl)cc1` were, in that order, 402 nM and 809 nM.
The like results for `Cc1ccc(S(=O)(=O)N2C3C=CC(C3)[C@@H]2C(Cl)(Cl)Cl)cc1` (stereo partly drawn) were, in that order, 6320 nM and 33100 nM.
The like results for `O=[N+]([O-])c1cc([N+](=O)[O-])c(C(F)(F)F)cc1NN=C(c1ccc(O)cc1)c1ccc(O)cc1` were, in that order, 3210 nM and 15400 nM.
Consider `COc1ccc(Cn2c(Br)c3c(c2Br)-c2nc(N)sc2CC3)cc1`, for which the GI50 is 1900 nM and the TGI was 14000 nM.
The like results for `COc1cc(-c2nc3sccn3c2-c2ccnc(NCCNS(=O)(=O)c3ccc(F)cc3)n2)ccc1F` were, in that order, 2720 nM and above 100000 nM.
The like results for `CC1(C)[C@@H](NOCCCN)CC[C@]2(C)[C@H]3C(=O)C=C4[C@@H]5C[C@](C)(C(=O)O)CC[C@]5(C)CC[C@@]4(C)[C@]3(C)CC[C@@H]12` were, in that order, 2360 nM and 5450 nM.
The like results for `COc1ccc(C2c3cc4c(cc3OC3(OC)COC(=O)C23)OCO4)c(OC)c1` (stereo not drawn) were, in that order, 9240 nM and above 100000 nM.
As to `COC(=O)[C@]12CC[C@@H](C)[C@H](C)[C@@H]1C1=CC[C@@H]3[C@@]4(C)C[C@@H](O)[C@H](O)[C@@](C)(CO)[C@@H]4[C@H](O)C[C@@]3(C)[C@]1(C)CC2`, the GI50 is 10500 nM and the TGI was 24800 nM.
The like results for `Cc1ccc(NC2=C3CCCCC3OC2=O)cc1` (stereo not drawn) were, in that order, 21900 nM and above 100000 nM.
The like results for `Cc1cc(Nc2ccc(C)c(Cl)c2)n2nc(C(F)(F)F)nc2n1` were, in that order, 18700 nM and 61600 nM.
On to `CC(C)[C@@H]1NC(=O)[C@]2(C)CSC(=N2)c2ccnc(c2)CNC(=O)C[C@@H](/C=C/CCS)OC1=O`, for which the GI50 was 569 nM.
For the molecule `C=CC(=O)Nc1cc(Nc2nccc(-c3cn(C)c4ccccc34)n2)c(OC)cc1N(C)CCN(C)C`, the GI50 is 27.1 nM and 47.2 nM; the TGI is 332 nM.
For the molecule `Cc1ccc(-c2nc(N3CCNCC3)c3oc(-c4ccc(C)cc4)nc3n2)cc1`, the GI50 was 3290 nM and the TGI is above 21800 nM.
For the molecule `C#Cc1cccc(Nc2nc3cc([N+](=O)[O-])ccc3nc2Nc2ccc(O)cc2)c1`, the GI50 was 1430 nM and the TGI was found to be 3260 nM.
The like results for `O=C(Nc1cccc(C(F)(F)F)c1)Nc1cccc(C(F)(F)F)c1` were, in that order, 675 nM and 3170 nM.
The like results for `CCCCCCOc1ccc(/C=N/Nc2cc(C)nc3ccc(Cl)cc23)cc1` were, in that order, 1650 nM and 3130 nM.
The like results for `COCCn1cc(-c2nc(-c3cc4cccnc4[nH]3)cs2)c2cc(OC)ccc21` were, in that order, 31.7 nM and 192 nM.
On to `CC(C)(C)[Si](C)(C)OC1[C@@H](O[Si](C)(C)C(C)(C)C)[C@@H](CNC(=O)NC(=O)C(F)(F)F)O[C@H]1n1cnc2c(NC(=O)Nc3ccccc3)ncnc21` (stereo partly drawn), for which the GI50 is 2180 nM and the TGI was found to be 9160 nM.
The like results for `C#CC(=O)N(c1ccc(OC)cc1OC)C(C(=O)NCC(=O)OCC)c1cccs1` (stereo not drawn) were, in that order, 316 nM and 1170 nM.
The like results for `CN1CCN(c2ccc(Nc3ncc(Cl)c(NC[C@@H]4CCCO4)n3)cc2)CC1` were, in that order, 2180 nM and 6640 nM.
The like results for `COc1c2ccccc2c(OC)c2[nH]c(=O)ccc12` were, in that order, 4770 nM and above 91700 nM.
For `O=C1c2ccccc2C(=O)c2c(/C=C\N3CCCCC3)ccnc21`, the GI50 was 12900 nM and the TGI was determined as 26800 nM.
For `COc1ccc(C(c2cc(OC)c(OC)c(OC)c2)n2cncn2)cc1O` (stereo not drawn), the GI50 is 371 nM and the TGI was above 100000 nM.
Regarding `CCCn1cnc2c(c1=N)C(c1ccc(F)cc1)c1sc3c(CC)cccc3c1O2` (stereo not drawn), the GI50 is 350 nM and the TGI was above 100000 nM.
The like results for `NC(=S)N/N=C\c1nccc2c(C(F)(F)F)cccc12` were, in that order, 199 nM and 612 nM.
Consider `C=C1C(=O)O[C@H]2[C@H]1CC/C(CNC(=O)c1cc3ccccc3[nH]1)=C\CC[C@@]1(C)O[C@@H]21`, for which the GI50 is 1050 nM and the TGI amounted to 3600 nM.
The like results for `CC(=O)N[C@@H](Cc1ccc(OP(=O)(O)O)cc1)C(=O)N[C@H]1CCC(=O)N2CCC[C@@H](C(=O)Nc3cccc4ccccc34)N2C1=O` were, in that order, above 25000 nM and above 25000 nM.
The like results for `CCN(CC)c1ccc(/C=N/NC(=O)c2ccc(S(N)(=O)=O)cc2)c(O)c1` were, in that order, 258 nM and 1140 nM.
The like results for `CN1CCN(C(=O)COc2ccc(C34CC5CC(CC(C5)C3)C4)cc2)CC1` were, in that order, 9120 nM and 23100 nM.
For `O=C(Nc1nn2c(-c3cc(C(F)(F)F)cc(C(F)(F)F)c3)nnc2s1)C1CCCC1`, the GI50 is 356 nM and the TGI stood at 4350 nM.
The like results for `O=C1NC(=NCc2ccccc2)S/C1=C\c1ccc2ncccc2c1` were, in that order, above 16200 nM and above 25000 nM.
The like results for `CNC(=O)c1cc(Oc2ccc3nc(NC(=O)c4ccc(CN5CCCN(C)CC5)c(C(F)(F)F)c4)sc3c2)ccn1` were, in that order, 1190 nM and 2590 nM.
